Each compound was assayed against Cruzipain (Trypanosoma cruzi, UniProt P25779) (assay: Inhibition of epimastigote form of Trypanosoma cruzi Tulahuen 2 cruzain assessed as reduction in 7-amino-4-methylcoumarin release incubated for 20 mins folllowed by Z-FR-AMC substrate addition and measured up to 45 mins by fluorometric assay).
Chain of Cruzipain (P25779 whole entry): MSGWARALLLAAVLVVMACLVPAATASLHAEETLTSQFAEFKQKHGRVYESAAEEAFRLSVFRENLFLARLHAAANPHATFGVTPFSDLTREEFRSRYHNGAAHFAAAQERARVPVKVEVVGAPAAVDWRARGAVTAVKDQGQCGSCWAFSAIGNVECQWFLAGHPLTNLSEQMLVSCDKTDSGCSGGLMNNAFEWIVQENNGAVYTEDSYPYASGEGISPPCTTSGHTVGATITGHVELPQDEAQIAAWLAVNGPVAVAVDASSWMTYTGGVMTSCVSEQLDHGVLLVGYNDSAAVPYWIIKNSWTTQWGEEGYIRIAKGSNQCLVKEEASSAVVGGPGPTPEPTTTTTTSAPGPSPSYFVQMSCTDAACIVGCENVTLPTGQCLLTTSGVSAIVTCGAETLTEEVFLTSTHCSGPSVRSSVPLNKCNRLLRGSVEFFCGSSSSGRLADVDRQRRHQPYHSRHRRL

Row | SMILES | IC50 [µM]
1 | CC/C(=N\N=C(\N)S)c1ccc(Cl)c(Cl)c1 | 0.0695
2 | COc1cccc(/C(C)=N/N=C(/N)S)c1 | 1470
3 | N/C(S)=N/N=C/c1ccc(Cl)c(Cl)c1 | 0.0816
4 | C/C(=N\N=C(\N)S)c1ccc(Cl)c(Cl)c1 | 0.147
5 | CC/C(=N\N=C(\N)S)c1cccc(Cl)c1 | 23.2

The next lines start with the values.

Row | IC50 [µM] | SMILES
6 | 105 | NC(=S)N/N=C/c1cccc(Cl)c1
7 | 29.9 | C/C(=N\NC(N)=S)c1cccc(Cl)c1
8 | 0.753 | CC/C(=N\NC(N)=S)c1cccc([N+](=O)[O-])c1
9 | 7.6 | C/C(=N\NC(N)=S)c1ccc([N+](=O)[O-])cc1
